Assay results from PubChem BioAssay AID248 (DTP/NCI, 2004).
“And” between values parts separate entries of the source, which are not always exact repeats. Equal entries are not always repeated. Toxic doses and inconclusive results are not listed.

System: L1210 leukemia ip in BDF1 mice, survival T/C
Experiment: NCI In Vivo Anticancer Drug Screen. Data for tumor model L1210 Leukemia (intraperitoneal) in B6D2F1 (BDF1) mice
Details: endpoint: mean survival time, higher = longer survival
Outline: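 Ratio derived from survival: compound-dosed mice over vehicle-dosed mice, all bearing a transplantable tumor.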

[1] = dose: 100.0 mg/kg/injection, schedule: Q01DX001 (ip), vehicle: saline
[2] = dose: 200.0 mg/kg/injection, schedule: Q01DX001 (ip), vehicle: saline
[3] = dose: 400.0 mg/kg/injection, schedule: Q01DX001 (ip), vehicle: saline
[4] = dose: 25.0 mg/kg/injection, schedule: Q01DX009 (ip), vehicle: saline
[5] = dose: 100.0 mg/kg/injection, schedule: Q01DX009 (ip), vehicle: Klucel (hydroxypropylcellulose) (HPC)
[6] = dose: 100.0 mg/kg/injection, schedule: Q04DX003 (ip), vehicle: Klucel (hydroxypropylcellulose) (HPC)
[7] = dose: 200.0 mg/kg/injection, schedule: Q01DX009 (ip), vehicle: Klucel (hydroxypropylcellulose) (HPC)
[8] = dose: 400.0 mg/kg/injection, schedule: Q04DX003 (ip), vehicle: Klucel (hydroxypropylcellulose) (HPC)
[9] = dose: 50.0 mg/kg/injection, schedule: Q01DX009 (ip), vehicle: Klucel (hydroxypropylcellulose) (HPC)

CCCCCCC1CCC(N)CC1 (stereo not given) was tested, and the T/C (dose: 6.25 mg/kg/injection, schedule: Q04DX002 (ip), vehicle: saline with Tween-80) was 95 % of control, the T/C (dose: 12.5 mg/kg/injection, schedule: Q04DX002 (ip), vehicle: saline with Tween-80) was 95 % of control and the T/C (dose: 25.0 mg/kg/injection, schedule: Q04DX002 (ip), vehicle: saline with Tween-80) was 113 % of control.

For CC(C)N(CSc1ccc([N+](=O)[O-])cc1)CSc1ccc([N+](=O)[O-])cc1, the T/C [1] was 100 % of control, the T/C [2] was 96 % of control and the T/C [3] was 98 % of control.

With O=C(O)C(CS(=O)(=O)O)Nc1ncnc2nc[nH]c12 (stereo not given) the T/C [1] was 93 % of control, the T/C [2] was 98 % of control and the T/C [3] was 98 % of control.

For O=[N+]([O-])/C=C/c1ccc2ccccc2n1, the T/C (dose: 6.25 mg/kg/injection, schedule: Q01DX009 (ip), vehicle: saline with Tween-80) was 97 % of control, the T/C (dose: 12.5 mg/kg/injection, schedule: Q01DX009 (ip), vehicle: saline with Tween-80) was 97 % of control and the T/C (dose: 50.0 mg/kg/injection, schedule: Q01DX009 (ip), vehicle: saline with Tween-80) was 87 % of control. For the same molecule, the T/C (dose: 100.0 mg/kg/injection, schedule: Q04DX003 (ip), vehicle: saline with Tween-80) was 93 % of control and the T/C (dose: 200.0 mg/kg/injection, schedule: Q04DX003 (ip), vehicle: saline with Tween-80) was 95 % of control.

With CCOc1ccn(C2OC(CO)C(OC3OC(COC(C)=O)C(OC(C)=O)C(OC(C)=O)C3OC(C)=O)C(OC(C)=O)C2OC(C)=O)c(=O)n1 (stereo not given) the T/C (dose: 22.5 mg/kg/injection, schedule: Q01DX001 (ip), vehicle: carboxymethylcellulose (CMC)) was 100 % of control, the T/C (dose: 45.0 mg/kg/injection, schedule: Q01DX001 (ip), vehicle: carboxymethylcellulose (CMC)) was 103 % of control and the T/C (dose: 90.0 mg/kg/injection, schedule: Q01DX001 (ip), vehicle: carboxymethylcellulose (CMC)) was 97 % of control. The T/C (dose: 180.0 mg/kg/injection, schedule: Q01DX001 (ip), vehicle: carboxymethylcellulose (CMC)) was 100 % of control.

For CC12C(=O)C(C)(C(c3ccccc3)=C1c1ccccc1)C1C=CN(S(C)(=O)=O)C=CC12 (stereo not given), the T/C (dose: 100.0 mg/kg/injection, schedule: Q04DX002 (ip), vehicle: saline with Tween-80) was 86 % of control, the T/C (dose: 200.0 mg/kg/injection, schedule: Q04DX002 (ip), vehicle: saline with Tween-80) was 88 % of control and the T/C (dose: 400.0 mg/kg/injection, schedule: Q04DX002 (ip), vehicle: saline with Tween-80) was 86 % of control.

With Cc1ccc(S(=O)(=O)NC(CCl)=NCC23CC4CC(CC(C4)C2)C3)cc1 the T/C (dose: 31.3 mg/kg/injection, schedule: Q04DX002 (ip), vehicle: Klucel (hydroxypropylcellulose) (HPC)) was 113 % of control, the T/C (dose: 62.5 mg/kg/injection, schedule: Q04DX002 (ip), vehicle: Klucel (hydroxypropylcellulose) (HPC)) was 94 % of control and the T/C (dose: 125.0 mg/kg/injection, schedule: Q04DX002 (ip), vehicle: Klucel (hydroxypropylcellulose) (HPC)) was 94 % of control.

With CC1(C)CN1P(=S)(N1CC1(C)C)N1CC1(C)C (stereo not given) the T/C (dose: 12.5 mg/kg/injection, schedule: Q01DX009 (ip), vehicle: saline) was 98 % of control, the T/C (dose: 14.0 mg/kg/injection, schedule: Q01DX009 (ip), vehicle: saline) was 109 % of control and the T/C (dose: 22.0 mg/kg/injection, schedule: Q01DX009 (ip), vehicle: saline) was 112 % of control. The T/C [4] was 94 % of control, the T/C (dose: 33.0 mg/kg/injection, schedule: Q01DX009 (ip), vehicle: saline) was 152 % of control and the T/C (dose: 44.0 mg/kg/injection, schedule: Q01DX001 (ip), vehicle: other) was 121 % of control. For the same molecule, the T/C (dose: 100.0 mg/kg/injection, schedule: Q01DX001 (ip), vehicle: carboxymethylcellulose (CMC)) was 166 % of control and 169 % of control, the T/C (dose: 100.0 mg/kg/injection, schedule: Q01DX001 (ip), vehicle: other) was 153 % of control and the T/C (dose: 150.0 mg/kg/injection, schedule: Q01DX001 (ip), vehicle: other) was 158 % of control. The T/C (dose: 200.0 mg/kg/injection, schedule: Q01DX001 (ip), vehicle: carboxymethylcellulose (CMC)) was 164 % of control and the T/C (dose: 200.0 mg/kg/injection, schedule: Q01DX009 (ip), vehicle: saline) was 120 % of control.

In the case of O=[N+]([O-])c1ccc(C2=CSC3=NCCN23)cc1, the T/C (dose: 5.0 mg/kg/injection, schedule: Q01DX001 (ip), vehicle: saline) is reported as 97 % of control, the T/C (dose: 10.0 mg/kg/injection, schedule: Q01DX001 (ip), vehicle: saline) is reported as 95 % of control and the T/C (dose: 20.0 mg/kg/injection, schedule: Q01DX001 (ip), vehicle: saline) is reported as 95 % of control. The T/C [4] was 110 % of control, the T/C (dose: 40.0 mg/kg/injection, schedule: Q01DX001 (ip), vehicle: saline) was 97 % of control and the T/C (dose: 50.0 mg/kg/injection, schedule: Q01DX009 (ip), vehicle: saline) was 95 % of control.

For O=C1c2ccccc2-c2cc(-c3ccccc3)cc(-c3ccccc3)c21, the T/C [5] was 96 % of control, the T/C [6] was 104 % of control and the T/C [7] was 92 % of control. For the same molecule, the T/C (dose: 400.0 mg/kg/injection, schedule: Q01DX009 (ip), vehicle: Klucel (hydroxypropylcellulose) (HPC)) was 94 % of control and the T/C [8] was 88 % of control.

For C=CCNC(=S)Nc1cccc(Cl)c1C, the T/C (dose: 12.5 mg/kg/injection, schedule: Q01DX009 (ip), vehicle: Klucel (hydroxypropylcellulose) (HPC)) was 87 % of control, the T/C (dose: 25.0 mg/kg/injection, schedule: Q01DX009 (ip), vehicle: Klucel (hydroxypropylcellulose) (HPC)) was 101 % of control and the T/C [9] was 96 % of control. For the same molecule, the T/C [6] was 90 % of control, the T/C (dose: 200.0 mg/kg/injection, schedule: Q04DX003 (ip), vehicle: Klucel (hydroxypropylcellulose) (HPC)) was 100 % of control and the T/C [8] was 94 % of control.

For O=C(O)c1ccc(N=Nc2nc3ccccc3[nH]2)cc1, the T/C [9] was 90 % of control, the T/C [5] was 93 % of control and the T/C [7] was 90 % of control.

In the case of CC1(COCCOCC2(C)CO2)CO1 (stereo not given), the T/C (dose: 100.0 mg/kg/injection, schedule: Q04DX003 (ip), vehicle: saline) is reported as 97 % of control, the T/C (dose: 180.0 mg/kg/injection, schedule: Q01DX009 (ip), vehicle: saline) is reported as 106 % of control and 108 % of control and the T/C (dose: 200.0 mg/kg/injection, schedule: Q04DX003 (ip), vehicle: saline) is reported as 103 % of control. For the same molecule, the T/C (dose: 266.0 mg/kg/injection, schedule: Q01DX009 (ip), vehicle: saline) was 112 % of control and the T/C (dose: 400.0 mg/kg/injection, schedule: Q01DX009 (ip), vehicle: saline) was 150 % of control.

O=C(NCCCCCCNC(=O)NCCN1CCOCC1)NCCN1CCOCC1 was tested, and the T/C (dose: 100.0 mg/kg/injection, schedule: Q04DX002 (ip), vehicle: Klucel (hydroxypropylcellulose) (HPC)) was 94 % of control, the T/C (dose: 200.0 mg/kg/injection, schedule: Q04DX002 (ip), vehicle: Klucel (hydroxypropylcellulose) (HPC)) was 105 % of control and the T/C (dose: 400.0 mg/kg/injection, schedule: Q04DX002 (ip), vehicle: Klucel (hydroxypropylcellulose) (HPC)) was 97 % of control.

With Oc1ccc(O)c2c1C1c3ccccc3C2c2ccccc21 the T/C [1] was 86 % of control and the T/C [2] was 108 % of control.
